Laboratory results: US10000471B2, “Pyrazole P38 map kinase inhibitors” (Respivert Limited, priority 2010, dated 2018)

Columns and labels:
[1] = biological target: T1, p38 MAPKα isoform (MAPK14) (Homo sapiens, UniProt Q16539); assay: Enzyme inhibition assay (FRET, Z-LYTE), p38 MAPKα via MAPKAP-K2 activation; type: biochemical; settings: read-out: Enzyme Inhibition IC50 p38α
T1 construct: purchased Invitrogen
Procedure, shortened: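 Recombinant p38 MAPKα was preincubated with compound for 2 h at RT. Its activity was measured indirectly through activation/phosphorylation of downstream MAPKAP-K2, with a Z-LYTE FRET peptide read-out (coumarin/fluorescein ratio) after a 1 h development step. IC50 came from concentration-response curves of percent inhibition versus an uninhibited control.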

p38 MAPKγ (MAPK12) = biological target: T2, p38 MAPKγ (MAPK12) (Homo sapiens, UniProt P53778); assay: Enzyme inhibition assay (FRET, Z-LYTE), p38 MAPKγ; type: biochemical; settings: read-out: Enzyme Inhibition IC50 p38γ
T2 construct: purchased Invitrogen
T2 sequence (P53778 1-367): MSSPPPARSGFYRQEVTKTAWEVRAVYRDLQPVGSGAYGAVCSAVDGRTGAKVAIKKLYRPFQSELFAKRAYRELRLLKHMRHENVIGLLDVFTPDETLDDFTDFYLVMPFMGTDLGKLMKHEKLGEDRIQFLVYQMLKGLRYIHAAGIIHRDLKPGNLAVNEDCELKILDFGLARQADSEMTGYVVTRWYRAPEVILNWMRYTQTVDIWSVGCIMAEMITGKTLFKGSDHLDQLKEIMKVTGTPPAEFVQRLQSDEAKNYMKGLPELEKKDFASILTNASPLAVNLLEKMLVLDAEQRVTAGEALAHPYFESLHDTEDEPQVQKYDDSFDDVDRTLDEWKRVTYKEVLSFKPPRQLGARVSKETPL
Procedure, shortened: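 Recombinant phosphorylated p38 MAPKγ preincubated 2 h at RT with compound in HEPES buffer, then 2 μM FRET peptide and 100 μM ATP added for 1 h; protease development 1 h. Coumarin/fluorescein emission ratio gave phosphorylation; IC50 from concentration-response versus uninhibited control.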

[2] = system: TNFα release in THP-1 cells; assay: LPS-induced TNFα release in THP-1 cells; type: cell-based, human; settings: Homo sapiens
Procedure, shortened: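 Human monocytic THP-1 cells stimulated with 3 μg/mL E. coli LPS for 4 hr; supernatant TNFα measured by sandwich ELISA. Inhibition at each concentration versus vehicle control, IC50 from concentration-response curve.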

[3] = system: TNFα release in d-U937 cells; assay: LPS-induced TNFα release in d-U937 cells; type: cell-based, human; settings: Homo sapiens, dU937, relative to 10 μg/mL BIRB796, read-out: LPS/TNFα REC50 d-U937
Procedure, shortened: (§1)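 PMA-differentiated (100 ng/ml, 48–72 hr) U937 macrophage-type cells pre-incubated 2 hr with compound, then stimulated 4 hr with 0.1 μg/mL E. coli O111:B4 LPS; supernatant TNFα and IL-8 measured by sandwich ELISA. TNFα inhibition expressed relative to 10 μg/mL BIRB796, giving REC50; IL-8 inhibition versus vehicle, giving IC50.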

[4] = system: IL-8 release in d-U937 cells; assay: LPS-induced IL-8 release in d-U937 cells; type: cell-based, human; settings: Homo sapiens, dU937
Procedure, shortened: as §1

[5] = system: ICAM-1 induction in BEAS2B cells; assay: Poly I:C-induced ICAM-1 induction in BEAS2B cells; type: cell-based, human; settings: Homo sapiens, BEAS-2B, read-out: PolyIC/ICAM1 IC50 BEAS2B
Procedure, shortened: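 Human bronchial epithelial BEAS2B cells were pre-incubated with compound for 2 hr, then transfected with 1 μg/mL poly I:C. After 18 hr, surface ICAM-1 was measured by cell-based ELISA (OD450-655) and normalized to crystal violet cell counts (OD595). IC50 came from inhibition versus vehicle across the concentration-response curve.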

[6] = system: Differentiated U937 cells; assay: Cell viability MTT assay; type: cell-based, human; settings: negative = apparent increase in viability; for MTT Assay (Viability) 4 h d-U937, percentage loss of cell viability: 4 hr in 5% FCS; for MTT Assay (Viability) 24 h d-U937, percentage loss of cell viability: 24 h in 10% FCS
Procedure, shortened: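 Differentiated U937 cells pre-incubated with compound either 4 hr in 5% FCS or 24 h in 10% FCS, then 1 hr MTT. Formazan dissolved in DMSO, absorbance at 550 nm. Percentage viability loss relative to 0.5% DMSO vehicle; apparent increases appear as negative percentages.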

T1 sequence (Q16539 whole entry, canonical isoform): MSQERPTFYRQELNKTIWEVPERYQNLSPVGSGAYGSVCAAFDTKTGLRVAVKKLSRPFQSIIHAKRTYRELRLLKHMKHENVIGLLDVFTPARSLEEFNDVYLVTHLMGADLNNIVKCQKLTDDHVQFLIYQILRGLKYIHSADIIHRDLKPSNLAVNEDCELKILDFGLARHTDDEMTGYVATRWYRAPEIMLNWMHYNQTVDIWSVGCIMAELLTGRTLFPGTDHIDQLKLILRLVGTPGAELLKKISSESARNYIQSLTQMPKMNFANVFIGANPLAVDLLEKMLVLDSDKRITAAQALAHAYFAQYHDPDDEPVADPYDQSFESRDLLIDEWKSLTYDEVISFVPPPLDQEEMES

SMILES | IC50 [1] [nM] | IC50 (p38 MAPKγ (MAPK12)) [nM] | IC50 [2] [nM] | EC50 [3] [nM] | IC50 [4] [nM] | IC50 [5] [nM] | MTT Assay (Viability) 4 h d-U937, percentage loss of cell viability [6] [%] | MTT Assay (Viability) 24 h d-U937, percentage loss of cell viability [6] [%]
COc1ccc(-n2nc(C(C)(C)C)cc2NC(=O)Nc2ccc(Oc3ccnc(NC(=O)CN4CCOCC4)c3)c(Cl)c2Cl)cc1 [Example 45, N-(4-(4-(3-(3-tert-butyl-1-(4-methoxyphenyl)-1H-pyrazol-5-yl)ureido)-2,3-dichlorophenoxy)pyridin-2-yl)-2-morpholinoacetamide] | 27.4 | 84.7 | 0.8 | 0.7 | 1 | 9 | −4.8 | 56.2
CN(C)CCNC(=O)Nc1cc(Oc2ccc(NC(=O)Nc3cc(C(C)(C)C)nn3-c3ccc(CO)cc3)c(Cl)c2Cl)ccn1 [Example 70, 1-(3-tert-butyl-1-(4-hydroxymethylphenyl)-1H-pyrazol-5-yl)-3-(2,3-dichloro-4-(2-(3-(2-(dimethylamino)ethyl)ureido)pyridin-4-yloxy)phenyl)urea] | 3.5 | 30.1 | 2.4 | 1.5 | 5.7 | 10.1 | 6.1 | 94.1
CNC(=O)Nc1cc(Oc2ccc(NC(=O)Nc3cc(C(C)(C)C)nn3-c3ccc(CO)c(Cl)c3)c(Cl)c2Cl)ccn1 [Example 54, 1-(3-tert-butyl-1-(3-chloro-4-hydroxymethylphenyl)-1H-pyrazol-5-yl)-3-(2,3-dichloro-4-(2-(3-methylureido)pyridin-4-yloxy)phenyl)urea] | 87.7 | 52.8 | 2.2 | 0.3 | 3.2 | 2.5 | −34.9 | 71.2
COCC(=O)Nc1cc(Oc2ccc(NC(=O)Nc3cc(C(C)(C)C)nn3-c3ccc(C)cc3)c3ncccc23)ccn1 [Example 40, N-(4-(8-(3-(3-tert-butyl-1-p-tolyl-1H-pyrazol-5-yl)ureido)quinolin-5-yloxy)pyridin-2-yl)-2-methoxyacetamide] | 0.3 | 189 | 0.7 | 1.6 | 2 | 16.6 | −10.7 | 28.4
CC(C)(C)c1cc(NC(=O)Nc2ccc(Oc3ccnc(NC(=O)CN4CCOCC4)c3)c(Cl)c2Cl)n(-c2ccc(CO)cc2)n1 [Example 48, N-(4-(4-(3-(3-tert-butyl-1-(4-hydroxymethylphenyl)-1H-pyrazol-5-yl)ureido)-2,3-dichlorophenoxy)pyridin-2-yl)-2-morpholino-acetamide] | 6.3 | 22.4 | 0.4 | 1.1 | 5.1 | 2.2 | 12.5 | 84.1
COCC(=O)Nc1cc(Oc2cc(Cl)c(NC(=O)Nc3cc(C(C)(C)C)nn3-c3ccc(C)cc3)cc2Cl)ccn1 [Example 39, N-(4-(4-(3-(3-tert-butyl-1-p-tolyl-1H-pyrazol-5-yl)ureido)-2,5-dichlorophenoxy)pyridin-2-yl)-2-methoxyacetamide] | 11.5 | 3470 | 9.6 | 27 | 108 | 109 | 6.5 | −3.0
COc1ccc(-n2nc(C(C)(C)C)cc2NC(=O)Nc2ccc(Oc3ccnc(NC(=O)N4CCCC4(C)C)c3)c(Cl)c2Cl)cc1 [Example 86, N-(4-(4-(3-(3-tert-butyl-1-(4-methoxyphenyl)-1H-pyrazol-5-yl)ureido)-2,3-dichlorophenoxy)pyridin-2-yl)-2,2-dimethylpyrrolidine-1-carboxamide] | 138 | 436 | 0.8 | 2.7 | 2.6 | 8 | −5.1 | 26.7
COc1cc(-n2nc(C(C)(C)C)cc2NC(=O)Nc2ccc(Oc3ccnc(NC(=O)N4CC[C@H](N(C)C)C4)c3)c(Cl)c2Cl)ccc1CO [Example 84, (S)-N-(4-(4-(3-(3-tert-butyl-1-(4-hydroxymethyl-3-methoxyphenyl)-1H-pyrazol-5-yl)ureido)-2,3-dichlorophenoxy)pyridin-2-yl)-3-(dimethylamino)pyrrolidine-1-carboxamide] | 13.8 | 27 | 1.2 | 1.4 | 9.6 | 2.6 | 3.2 | 56.7
CNC(=O)Nc1cc(Oc2ccc(NC(=O)Nc3cc(C(C)(C)C)nn3-c3ccc(OC)cc3)c3ncccc23)ccn1 [Example 57, 1-(3-tert-butyl-1-(4-methoxyphenyl)-1H-pyrazol-5-yl)-3-(5-(2-(3-methylureido)pyridin-4-yloxy)quinolin-8-yl)urea] | 47.3 | 167 | 14.9 | 2.3 | 3 | 142 | −23.6 | −56.2
COCCNC(=O)Nc1cc(Oc2ccc(NC(=O)Nc3cc(C(C)(C)C)nn3-c3ccc(OC)cc3)c(Cl)c2Cl)ccn1 [Example 67, 1-(4-(4-(3-(3-tert-butyl-1-(4-methoxyphenyl)-1H-pyrazol-5-yl)ureido)-2,3-dichlorophenoxy)pyridin-2-yl)-3-(2-methoxyethyl)urea] | 27.9 | 67.8 | 1.2 | 1.7 | 5.8 | 2 | −11.4 | 40.9
COCC(=O)Nc1cc(COc2ccc(NC(=O)Nc3cc(C(C)(C)C)nn3-c3ccc(C)cc3)c3cccnc23)ccn1 [Example 16, N-(4-((5-(3-(3-tert-Butyl-1-p-tolyl-1H-pyrazol-5-yl)ureido)quinolin-8-yloxy)methyl)pyridin-2-yl)-2-methoxyacetamide] | 36.7 | 1440 | > 1690 | 876 | 4960 | > 1690 | −8.1 | −21.3
COCC(=O)Nc1cc(Oc2ccc(NC(=O)Nc3cc(C(C)(C)C)nn3-c3ccc(C)cc3)cc2Br)ccn1 [Example 33, N-(4-(2-bromo-4-(3-(3-tert-butyl-1-p-tolyl-1H-pyrazol-5-yl)ureido)phenoxy)pyridin-2-yl)-2-methoxyacetamide] | 25.3 | 59.7 | 1.5 | 6.4 | 4.8 | 3 | −12.6 | 68.9
CNC(=O)Nc1cc(Oc2ccc(NC(=O)Nc3cc(C(C)(C)C)nn3-c3ccc(CO)c(OC)c3)c(Cl)c2Cl)ccn1 [Example 53, 1-(3-tert-butyl-1-(4-hydroxymethyl-3-methoxy-phenyl)-1H-pyrazol-5-yl)-3-(2,3-dichloro-4-(2-(3-methylureido)pyridin-4-yloxy)phenyl)urea] | 46.9 | 35.8 | 1.8 | 1.3 | 7.7 | 2.2 | −1.1 | 87.8
